Results as given in patent US20240116947A1, “PYRIDO OXAZINE DERIVATIVES AS ALK5 INHIBITORS” (CHIESI FARMACEUTICI S.P.A., priority 2020, published 2024).

Molecular target: human ALK5 (Homo sapiens (Human), UniProt P36897)
Test: ADP-GLO Kinases assay, inhibition of ALK5 enzymatic activity
Type: biochemical
Details: Table 4; potency bins; purified recombinant human ALK5, ADP-Glo, 25° C.; read-out: ALK5 IC50
Protocol: The enzymatic activity of compounds of the present invention was monitored measuring the formation of ADP using the ADP-GLO Kinases assay. Following the incubation of the purified enzyme, a substrate and ATP, the produced ADP was converted into ATP, which in turn was converted into light by Ultra-Glo Luciferase. The luminescent signal positively correlated with ADP amount and kinase activity. Briefly, the kinase reaction was performed by incubating 2.6 nM of the purified, commercially available human ALK5 (recombinant TGF β1 N-term GST-tagged, 80-end), a final concentration of TGFβ1 peptide 94.5 μM (Promega, T36-58) and ultra-pure ATP (Promega V915B). […] All reactions/incubations were performed at 25° C. Compound and ALK5 kinase were mixed and incubated for 15 mins. Reactions were initiated by addition of ATP at a final concentration in the assay of 0.83 μM. After an incubation of 150 min, the reaction was stopped, and ADP production detected with ADP-Glo kit according to manufacturer's indications. The assay was performed in 384-well format and was validated using a selection of reference compounds that was tested in 11 point concentration-response curve.

Sequence of human ALK5 (P36897 80-503 limits assumed): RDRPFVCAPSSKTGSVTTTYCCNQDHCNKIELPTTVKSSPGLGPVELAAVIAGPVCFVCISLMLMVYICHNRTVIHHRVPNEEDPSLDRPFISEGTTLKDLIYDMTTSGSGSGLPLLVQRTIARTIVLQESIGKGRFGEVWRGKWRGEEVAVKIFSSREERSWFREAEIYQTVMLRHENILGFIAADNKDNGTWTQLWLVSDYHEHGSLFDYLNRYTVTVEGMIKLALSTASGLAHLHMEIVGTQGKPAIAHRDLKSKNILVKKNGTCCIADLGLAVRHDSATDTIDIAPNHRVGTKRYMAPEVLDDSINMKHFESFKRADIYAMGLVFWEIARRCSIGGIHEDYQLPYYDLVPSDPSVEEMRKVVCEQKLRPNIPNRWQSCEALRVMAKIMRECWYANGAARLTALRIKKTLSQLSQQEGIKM

SMILES	IC50 [nM]
Fc1ccc(Cl)cc1-c1cc2c(cn1)OCCN2c1ccncc1 [Example 1, 4-[7-(5-chloro-2-fluorophenyl)-1H,2H,3H-pyrido[3,4-b][1,4]oxazin-1-yl]pyridine]	5 to 10
COCCC(=O)Nc1cc(N2CCOc3cnc(-c4cc(Cl)ccc4F)cc32)ccn1 [Example 40, N-{4-[7-(5-chloro-2-fluorophenyl)-1H,2H,3H-pyrido[3,4-b][1,4]oxazin-1-yl]pyridin-2-yl}-3-methoxypropanamide]	5 to 10
CC(C)c1ccc(F)c(-c2cc3c(cn2)OCCN3c2ccnc(N)c2)c1 [Example 13, 4-{7-[2-fluoro-5-(propan-2-yl)phenyl]-1H,2H,3H-pyrido[3,4-b][1,4]oxazin-1-yl}pyridin-2-amine]	1 to 5
Fc1ccc(Cl)cc1-c1cc2c(cn1)OCCN2c1ccnc2[nH]cnc12 [Example 17, 7-(5-chloro-2-fluorophenyl)-1-{3H-imidazo[4,5-b]pyridin-7-yl}-1H,2H,3H-pyrido[3,4-b][1,4]oxazine]	5 to 10
Cc1ccc(F)c(-c2cc3c(cn2)OCCN3c2ccnc(N)c2)c1 [Example 11, 4-[7-(2-fluoro-5-methylphenyl)-1H,2H,3H-pyrido[3,4-b][1,4]oxazin-1-yl]pyridin-2-amine]	5 to 10
CN1CCN(CCC(=O)Nc2cc(N3CCOc4c3cc(-c3cc(Cl)ccc3F)nc4C(=O)O)ccn2)CC1 [Example 44, 7-(5-chloro-2-fluorophenyl)-1-{2-[3-(4-methylpiperazin-1-yl)propanamido]pyridin-4-yl}-1H,2H,3H-pyrido[3,4-b][1,4]oxazine-5-carboxylic acid]	1 to 5
CN(CCC(=O)Nc1cc(N2CCOc3cnc(-c4cc(Cl)ccc4F)cc32)ccn1)CCS(C)(=O)=O [Example 27, N-{4-[7-(5-chloro-2-fluorophenyl)-1H,2H,3H-pyrido[3,4-b][1,4]oxazin-1-yl]pyridin-2-yl}-3-[(2-methanesulfonylethyl)(methyl)amino]propanamide]	1 to 5
CN1CCN(CCC(=O)Nc2cc(N3CCOc4c3cc(-c3cc(Cl)ccc3F)nc4C(F)(F)F)ccn2)CC1 [Example 56]	5 to 10
CN1CCN(CCC(=O)Nc2cc(N3CCOc4cnc(-c5cc(Cl)ncc5F)cc43)ccn2)CC1 [Example 42, N-{4-[7-(2-chloro-5-fluoropyridin-4-yl)-1H,2H,3H-pyrido[3,4-b][1,4]oxazin-1-yl]pyridin-2-yl}-3-(4-methylpiperazin-1-yl)propanamide]	< 1
Nc1cc(N2CCOc3cnc(-c4nc(Cl)ccc4F)cc32)ccn1 [Example 7, 4-[7-(6-Chloro-3-fluoropyridin-2-yl)-1H,2H,3H-pyrido[3,4-b][1,4]oxazin-1-yl]pyridin-2-amine]	5 to 10
CN1CCC(CCC(=O)Nc2cc(N3CCOc4cnc(-c5cc(Cl)ccc5F)cc43)ccn2)CC1 [Example 32, N-{4-[7-(5-chloro-2-fluorophenyl)-1H,2H,3H-pyrido[3,4-b][1,4]oxazin-1-yl]pyridin-2-yl}-3-(1-methylpiperidin-4-yl)propanamide]	< 1
COC(=O)CN(C)CCC(=O)Nc1cc(N2CCOc3cnc(-c4cc(Cl)ccc4F)cc32)ccn1 [Example 23, methyl 2-{[2-({4-[7-(5-chloro-2-fluorophenyl)-1H,2H,3H-pyrido[3,4-b][1,4]oxazin-1-yl]pyridin-2-yl}carbamoyl)ethyl](methyl)amino} acetate]	< 1
CN1CCN(CCC(=O)Nc2cc(N3CCOc4cnc(-c5nc(Cl)ccc5F)cc43)ccn2)CC1 [Example 38, N-{4-[7-(6-chloro-3-fluoropyridin-2-yl)-1H,2H,3H-pyrido[3,4-b][1,4]oxazin-1-yl]pyridin-2-yl}-3-(4-methylpiperazin-1-yl)propanamide]	< 1
O=C(CCN1CCOCC1)Nc1cc(N2CCOc3cnc(-c4cc(Cl)ccc4F)cc32)ccn1 [Example 8, N-{4-[7-(5-chloro-2-fluorophenyl)-1H,2H,3H-pyrido[3,4-b][1,4]oxazin-1-yl]pyridin-2-yl}-3-(morpholin-4-yl)propanamide]	< 1
O=C(CCN1CCN(CCN(CCO)CCO)CC1)Nc1cc(N2CCOc3cnc(-c4cc(Cl)ccc4F)cc32)ccn1 [Example 36, 3-(4-{2-[bis(2-hydroxyethyl)amino]ethyl}piperazin-1-yl)-N-{4-[7-(5-chloro-2-fluorophenyl)-1H,2H,3H-pyrido[3,4-b][1,4]oxazin-1-yl]pyridin-2-yl}propanamide]	< 1

Continued, values first:

IC50 [nM]	SMILES
< 1	CN1CCC(CCC(=O)Nc2cc(N3CCOc4cnc(-c5cc(Cl)ncc5F)cc43)ccn2)CC1 [Example 41, N-{4-[7-(2-chloro-5-fluoropyridin-4-yl)-1H,2H,3H-pyrido[3,4-b][1,4]oxazin-1-yl]pyridin-2-yl}-3-(1-methylpiperidin-4-yl)propanamide]
< 1	CN1CCN(CCC(=O)Nc2cc(N3CCOc4cnc(-c5cc(Cl)ccc5F)cc43)ccn2)CC1 [Example 14, N-{4-[7-(5-chloro-2-fluorophenyl)-1H,2H,3H-pyrido[3,4-b][1,4]oxazin-1-yl]pyridin-2-yl}-3-(4-methylpiperazin-1-yl)propanamide]
< 1	CN(C)CCC(=O)Nc1cc(N2CCOc3cnc(-c4cc(Cl)ccc4F)cc32)ccn1 [Example 9, N-{4-[7-(5-chloro-2-fluorophenyl)-1H,2H,3H-pyrido[3,4-b][1,4]oxazin-1-yl]pyridin-2-yl}-3-(dimethylamino)propanamide]
< 1	COC(=O)CC1CN(CCC(=O)Nc2cc(N3CCOc4cnc(-c5cc(Cl)ccc5F)cc43)ccn2)CCN1C (centres unmarked) [Example 47, Methyl 2-{4-[2-({4-[7-(5-chloro-2-fluorophenyl)-1H,2H,3H-pyrido[3,4-b][1,4]oxazin-1-yl]pyridin-2-yl}carbamoyl)ethyl]-1-methylpiperazin-2-yl}acetate]
< 1	O=C(CCN1CCN(CCC(=O)Nc2cc(N3CCOc4cnc(-c5cc(Cl)ccc5F)cc43)ccn2)CC1)NCCO [Example 35, 3-{4-[2-({4-[7-(5-chloro-2-fluorophenyl)-1H,2H,3H-pyrido[3,4-b][1,4]oxazin-1-yl]pyridin-2-yl}carbamoyl)ethyl]piperazin-1-yl}-N-(2-hydroxyethyl)propanamide]
< 1	CS(=O)(=O)NCCN1CCN(CCC(=O)Nc2cc(N3CCOc4cnc(-c5cc(Cl)ccc5F)cc43)ccn2)CC1 [Example 30, N-{4-[7-(5-chloro-2-fluorophenyl)-1H,2H,3H-pyrido[3,4-b][1,4]oxazin-1-yl]pyridin-2-yl}-3-[4-(2-methanesulfonamidoethyl)piperazin-1-yl]propanamide]
< 1	CN1CCN(CCC(=O)Nc2cc(N3CCOc4c3cc(-c3cc(Cl)ccc3F)nc4N)ccn2)CC1 [Example 51, N-{4-[5-amino-7-(5-chloro-2-fluorophenyl)-1H,2H,3H-pyrido[3,4-b][1,4]oxazin-1-yl]pyridin-2-yl}-3-(4-methylpiperazin-1-yl)propanamide]
< 1	COC(=O)CC1CN(CCC(=O)Nc2cc(N3CCOc4cnc(-c5cc(Cl)ccc5F)cc43)ccn2)CCN1 (centres unmarked) [Example 48, Methyl 2-{4-[2-({4-[7-(5-chloro-2-fluorophenyl)-1H,2H,3H-pyrido[3,4-b][1,4]oxazin-1-yl]pyridin-2-yl}carbamoyl)ethyl]piperazin-2-yl}acetate]
< 1	COC(=O)CC1CN(C)CCN1CCC(=O)Nc1cc(N2CCOc3cnc(-c4cc(Cl)ccc4F)cc32)ccn1 (centres unmarked) [Example 50, Methyl 2-{1-[2-({4-[7-(5-chloro-2-fluorophenyl)-1H,2H,3H-pyrido[3,4-b][1,4]oxazin-1-yl]pyridin-2-yl}carbamoyl)ethyl]-4-methylpiperazin-2-yl}acetate]
< 1	NC(=O)CCN1CCN(CCC(=O)Nc2cc(N3CCOc4cnc(-c5cc(Cl)ccc5F)cc43)ccn2)CC1 [Example 37, 3-[4-(2-carbamoylethyl)piperazin-1-yl]-N-{4-[7-(5-chloro-2-fluorophenyl)-1H,2H,3H-pyrido[3,4-b][1,4]oxazin-1-yl]pyridin-2-yl}propanamide]
< 1	COC(=O)C1CN(C)CCN1CCC(=O)Nc1cc(N2CCOc3cnc(-c4cc(Cl)ccc4F)cc32)ccn1 (centres unmarked) [Example 49, Methyl 1-[2-({4-[7-(5-chloro-2-fluorophenyl)-1H,2H,3H-pyrido[3,4-b][1,4]oxazin-1-yl]pyridin-2-yl}carbamoyl)ethyl]-4-methylpiperazine-2-carboxylate]
< 1	COC(=O)C1CN(CCC(=O)Nc2cc(N3CCOc4cnc(-c5cc(Cl)ccc5F)cc43)ccn2)CCN1C (centres unmarked) [Example 45, Methyl 4-[2-({4-[7-(5-chloro-2-fluorophenyl)-1H,2H,3H-pyrido[3,4-b][1,4]oxazin-1-yl]pyridin-2-yl}carbamoyl)ethyl]-1-methylpiperazine-2-carboxylate]
< 1	CN1CCN(CCC(=O)Nc2cc(N3CCOc4cnc(-c5cc(Cl)ccc5F)cc43)ccn2)C(=O)C1 [Example 25, N-{4-[7-(5-chloro-2-fluorophenyl)-1H,2H,3H-pyrido[3,4-b][1,4]oxazin-1-yl]pyridin-2-yl}-3-(4-methyl-2-oxopiperazin-1-yl)propanamide]
< 1	O=C(CCN1CCN(CCO)CC1)Nc1cc(N2CCOc3cnc(-c4cc(Cl)ccc4F)cc32)ccn1 [Example 28, N-{4-[7-(5-chloro-2-fluorophenyl)-1H,2H,3H-pyrido[3,4-b][1,4]oxazin-1-yl]pyridin-2-yl}-3-[4-(2-hydroxyethyl)piperazin-1-yl]propanamide]
